# Test results published in the NIST ThermoML archive (doi:10.1016/j.tca.2017.03.024).
# ± gives the expanded uncertainty stated by the source.
# Settings: Crystal; DTA
row,Structure (SMILES),Normal melting temperature [°C]
1,[Cl-].[Li+] [lithium chloride],605 ± 1
2,[Cl-].[K+] [potassium chloride],772 ± 1
3,[Cl][Pr]([Cl])[Cl] [praseodymium(III) chloride],778 ± 1
